In data set [1] the target is T1, 3CL^pro (Severe acute respiratory syndrome coronavirus 2, UniProt P0DTD1).
T1 construct: A 3CL^pro (Cat. #78042-1) assay kit (BPS Bioscience, CA, USA) was used; purchased BPS Bioscience 78042-1
Nature of the data set: FRET-based 3CL^pro enzyme activity assay. Type of data set: biochemical, SARS-CoV2. Here is the method:
FIG. 1 is a scheme of the fluorogenic 3CL^pro protease enzymatic assay. The fluorescence of Edans in the C-terminal of the peptide substrate (Dabcyl-[…]-Edans, the cleavage site is in between the amino acids Q and S) is quenched by the Dabcyl in the N-terminus without the 3CL^pro enzymatic cleavage. After the protease is added and cleaves the peptide substrate, the quencher molecule Dabcyl can no longer quench the fluorophore Edans which results in an increase in fluorescence emission at 460 nm. The intensity of this fluorescence is proportional to the protease activity. FRET: fluorescence resonance energy transfer.
3CL^pro inhibition percentage of different test groups is determined by “(Isubstrate+3CLpro−Itest_group)/(Isubstrate+3CLpro−Isubstrate)×100%, where “I” is the observed intensity of blue fluorescence light (at 460 nm); Isubstrate and Isubstrate+3CLpro are supposed to give the lowest and the highest intensity, respectively, where the substrate is a peptide labeled by a quencher and fluorophore at its N- and C-termini (as shown in FIG. 1). Specifically, the fluorescence of Edans in the C-terminal of the peptide (Dabcyl-[…]-Edans; the cleavage site is in between the amino acids Q and S) is quenched by the Dabcyl in the N-terminus in the absence of the 3CL^pro enzymatic cleavage. Norvancomycin (Nv) is the interface blocker here while the FDA drugs boceprevir (Bc) and GC376 (in its clinical trials) are the active-site inhibitors. The results are shown by the average value of two replicates.
The FRET-based assay was designed for 3CL^pro activity assay and explained in FIG. 1. The 3CL^pro enzyme assay was developed in a 96-well black microplate with a total volume of 50 μL. 30 μL of 0.5 ng/μL enzyme in a reaction buffer was added into each well, followed by the addition of 10 μL substrate solution to a final concentration of 40 μM. Enzymatic reaction gave fluorescence whose intensity was measured after incubation for 4 hours at 37° C. with slow shaking in a microtiter plate reading fluorimeter (BioTek Synergy HTX multi-mode reader, VT, US) with Ex=340 nm/Em=460 nm. […]

Data set [2] deals with SARS-CoV2 hCoV-19/Taiwan/NTU13/2020. In words: Plaque reduction assay in Vero E6 cells. Type of data set: cell-based.
Data set [3] deals with Vero E6 cells. Nature of the data set: Cytotoxicity assay. Type of data set: cell-based. As for the experimental part: (§1) FIGS. 6A and 6B show the cytotoxicity of norvancomycin (NV) and nelfinavir (NF). The percentage of cell survival is determined by obtaining cell viability of Vero E6 cells in the presence of drugs of interest and trace amount of DMSO that help fully dissolve the drug, normalized by Vero E6 cells in the presence of the same concentration of said DMSO, which serves as a control, the cell viability in the absence of the drugs. 50% cytotoxic concentration (CC50) represents the concentration of NV and NF required to reduce cell survival by 50%.
(§2) Cytotoxicity assay was performed using Vero E6 cells described above to determine the cytotoxicity of tested compounds, i.e., norvancomycin and nelfinavir. DMSO, the solvent used to help fully dissolve the drugs of interest, was used as the negative control. The percentage of cell survival and 50% cytotoxic concentration (CC50) were derived.

The nature of data set [4]: Cytotoxicity assay. Type of data set: cell-based. Particulars: African green monkey, Vero E6 cells. As for the experimental part:
as §1, §2

`CC(C)C[C@@H](N)C(=O)N[C@H]1C(=O)N[C@@H](CC(N)=O)C(=O)N[C@H]2C(=O)N[C@H]3C(=O)N[C@H](C(=O)N[C@H](C(=O)O)c4cc(O)cc(O)c4-c4cc3ccc4O)[C@H](O)c3ccc(c(Cl)c3)Oc3cc2cc(c3O[C@@H]2O[C@H](CO)[C@@H](O)[C@H](O)[C@H]2O[C@H]2C[C@](C)(N)[C@H](O)[C@H](C)O2)Oc2ccc(cc2Cl)[C@H]1O` [Norvancomycin]: the “extra 3CL^pro inhibition vs GC376 alone” value in data set [1] (25 μM norvancomycin in combination with 16 nM GC376) came out at 10%. The “additional 3CL^pro inhibition” value in data set [1] (50 μM norvancomycin in combination with 25 μM boceprevir) stood at 17%. Also, the “elevation of 3CL^pro inhibition” value in data set [1] (co-used with 25 μM boceprevir at molar ratio 1:1) was “around 10%”. The “suppression of SARS-CoV2 replication” value in data set [2] (40 μM norvancomycin) stood at 4%. Also, in data set [3], the CC50 (commonly the concentration giving 50% cytotoxicity) is greater than 100 µM.

On to `Cc1c(O)cccc1C(=O)N[C@@H](CSc1ccccc1)[C@H](O)CN1C[C@H]2CCCC[C@H]2C[C@H]1C(=O)NC(C)(C)C` [nelfinavir], for which the “suppression of SARS-CoV2 replication” value in data set [2] (0.9 μM nelfinavir) is on record as 41%; in data set [2] (1.8 μM nelfinavir), 35%; in data set [2] (1.8 μM nelfinavir together with 37.5 μM norvancomycin), 100%; in data set [2] (3.6 μM nelfinavir) it was 100%; in data set [2] (3.6 μM nelfinavir and 37.5 μM norvancomycin), 100%. For the same compound, the CC50 in data set [4] is 8.26 ± 0.495 µM. Besides, the cell survival rate in data set [3] (1.8 μM nelfinavir) worked out at 84%; in data set [3] (3.6 μM nelfinavir), 69%.

Values taken from patent US12370236B2, “Method and combination for the suppression of COVID-19 virus” (priority 2021, dated 2025).
